Results published in patent US9505762B2, “Purine derivatives as CB2 receptor agonists” (Hoffmann-La Roche Inc., priority 2013, dated 2016).

What was measured:
human CB1 receptors = human CB1 receptors (Homo sapiens (Human), UniProt P21554); experiment: functional cAMP assay, CB1; format: cell-based; conditions: CHO cells expressing human CB1
human CB2 receptors = human CB2 receptors (Homo sapiens (Human), UniProt P34972); experiment: functional cAMP assay, CB2; format: cell-based; conditions: CHO cells expressing human CB2
Sequence of human CB2 receptors (P34972 whole entry): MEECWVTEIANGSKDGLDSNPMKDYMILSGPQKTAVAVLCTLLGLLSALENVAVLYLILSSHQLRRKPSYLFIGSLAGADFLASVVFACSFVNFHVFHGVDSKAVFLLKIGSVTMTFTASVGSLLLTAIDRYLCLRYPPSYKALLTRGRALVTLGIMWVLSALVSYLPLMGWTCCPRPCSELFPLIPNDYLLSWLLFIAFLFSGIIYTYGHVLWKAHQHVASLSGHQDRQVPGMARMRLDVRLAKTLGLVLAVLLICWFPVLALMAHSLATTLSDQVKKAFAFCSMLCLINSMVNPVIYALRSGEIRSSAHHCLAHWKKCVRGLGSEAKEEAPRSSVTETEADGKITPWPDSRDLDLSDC

Sequence of human CB1 receptors (P21554 whole entry): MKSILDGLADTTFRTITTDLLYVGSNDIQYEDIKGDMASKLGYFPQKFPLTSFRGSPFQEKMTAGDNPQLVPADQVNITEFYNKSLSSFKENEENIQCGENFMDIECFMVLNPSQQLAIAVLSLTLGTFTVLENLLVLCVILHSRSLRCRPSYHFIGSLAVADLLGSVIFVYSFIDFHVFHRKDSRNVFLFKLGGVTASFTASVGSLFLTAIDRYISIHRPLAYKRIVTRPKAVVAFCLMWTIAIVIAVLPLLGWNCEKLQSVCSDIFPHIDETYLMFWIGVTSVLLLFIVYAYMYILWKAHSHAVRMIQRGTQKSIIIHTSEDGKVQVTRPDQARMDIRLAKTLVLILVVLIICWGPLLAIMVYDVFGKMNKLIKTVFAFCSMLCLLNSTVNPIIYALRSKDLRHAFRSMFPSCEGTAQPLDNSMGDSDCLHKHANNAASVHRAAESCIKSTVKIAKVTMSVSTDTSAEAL

Row | Structure (SMILES) | EC50 (human CB1 receptors) | EC50 (human CB2 receptors)
1 | CC1(O)CCN(c2nc(C(C)(C)C)nc3c2ncn3Cc2n[nH]cc2C(F)(F)F)C1 (stereo not drawn) [Example 85, 1-[2-tert-butyl-9-[[4-(trifluoromethyl)-1H-pyrazol-3-yl]methyl]purin-6-yl]-3-methylpyrrolidin-3-ol] | > 10000 nM | 22.1 nM
2 | CC(C)(C)c1nc(N2CC[C@H](O)C2)c2ncn(Cc3ccccc3C(F)(F)F)c2n1 [Example 86, (3S)-1-[2-tert-butyl-9-[[2-(trifluoromethyl)phenyl]methyl]purin-6-yl]pyrrolidin-3-ol] | > 10000 nM | 1.1 nM
3 | CC(C)(C)c1nc(N2CC[C@H](O)C2)c2ncn(Cc3cccc(Cl)c3)c2n1 [Example 87, (3S)-1-[2-tert-butyl-9-[(3-chlorophenyl)methyl]purin-6-yl]pyrrolidin-3-ol] | > 10000 nM | 2.1 nM
4 | CC(C)(C)c1nc(N2CCC3(COC3)C2)c2ncn(CCC(F)(F)F)c2n1 [Example 89, 7-[2-tert-butyl-9-(3,3,3-trifluoropropyl)purin-6-yl]-2-oxa-7-azaspiro[3.4]octane] | > 10000 nM | 573 nM
5 | CC(C)(C)c1nc(N2CC[C@H](O)C2)c2ncn(Cc3ccccc3S(C)(=O)=O)c2n1 [Example 90, (3S)-1-[2-tert-butyl-9-[(2-methylsulfonylphenyl)methyl]purin-6-yl]pyrrolidin-3-ol] | > 10000 nM | 7.9 nM
6 | CC(C)(C)c1nc(N2CC[C@H](O)C2)c2ncn(Cc3cccnc3Cl)c2n1 [Example 91, (3S)-1-[2-tert-butyl-9-[(2-chloropyridin-3-yl)methyl]purin-6-yl]pyrrolidin-3-ol] | > 10000 nM | 1.7 nM
7 | CC(C)(C)c1nc(N2CC[C@H](O)C2)c2ncn(Cc3ncccc3Cl)c2n1 [Example 92, (3S)-1-[2-tert-butyl-9-[(3-chloropyridin-2-yl)methyl]purin-6-yl]pyrrolidin-3-ol] | > 10000 nM | 8.4 nM
8 | CC(C)(C)c1nc(N2CC(F)(F)C(F)(F)C2)c2ncn(CCC(F)(F)F)c2n1 [Example 93, 2-tert-butyl-6-(3,3,4,4-tetrafluoropyrrolidin-1-yl)-9-(3,3,3-trifluoropropyl)purine] | > 10000 nM | 89.8 nM
9 | COCCn1cnc2c(N3CC[C@H](O)C3)nc(C(C)(C)C)nc21 [Example 94, (3S)-1-[2-tert-butyl-9-(2-methoxyethyl)purin-6-yl]pyrrolidin-3-ol] | > 10000 nM | 440 nM
10 | Cn1nnnc1Cn1cnc2c(N3CC[C@H](O)C3)nc(C(C)(C)C)nc21 [Example 95, (3S)-1-[2-tert-butyl-9-[(1-methyltetrazol-5-yl)methyl]purin-6-yl]pyrrolidin-3-ol] | > 10000 nM | 363 nM
11 | Cc1nonc1Cn1cnc2c(N3CC[C@H](O)C3)nc(C(C)(C)C)nc21 [Example 96, (3S)-1-[2-tert-butyl-9-[(4-methyl-1,2,5-oxadiazol-3-yl)methyl]purin-6-yl]pyrrolidin-3-ol] | > 10000 nM | 14.8 nM
12 | CC(C)(C)c1nc(N2CC[C@H](O)C2)c2ncn(Cc3ccccc3Cl)c2n1 [Example 97, (3S)-1-[2-tert-butyl-9-[(2-chlorophenyl)methyl]purin-6-yl]pyrrolidin-3-ol] | > 10000 nM | 1.8 nM
13 | CC(C)(C)c1nc(N2CC[C@H](O)C2)c2ncn(Cc3c[nH]nc3C(F)(F)F)c2n1 [Example 98, (3S)-1-[2-tert-butyl-9-[[3-(trifluoromethyl)-1H-pyrazol-4-yl]methyl]purin-6-yl]pyrrolidin-3-ol] | > 10000 nM | 22.3 nM
14 | CC(C)(C)c1nc(N2CC[C@H](O)C2)c2ncn(CCC(F)(F)F)c2n1 [Example 99, (3S)-1-[2-tert-butyl-9-(3,3,3-trifluoropropyl)purin-6-yl]pyrrolidin-3-ol] | > 10000 nM | 228 nM
15 | CC(C)(C)c1nc(N2CC[C@H](O)C2)c2ncn(Cc3n[nH]cc3C(F)(F)F)c2n1 [Example 100, (3S)-1-[2-tert-butyl-9-[[4-(trifluoromethyl)-1H-pyrazol-3-yl]methyl]purin-6-yl]pyrrolidin-3-ol] | > 10000 nM | 6.6 nM
16 | Cc1noc(Cn2cnc3c(N4CC[C@H](O)C4)nc(C(C)(C)C)nc32)n1 [Example 101, (3S)-1-[2-tert-butyl-9-[(3-methyl-1,2,4-oxadiazol-5-yl)methyl]purin-6-yl]pyrrolidin-3-ol] | > 10000 nM | 370 nM
17 | CC1(O)CCN(c2nc(C(C)(C)C)nc3c2ncn3CCC(F)(F)F)C1 (stereo not drawn) [Example 102, 1-[2-tert-butyl-9-(3,3,3-trifluoropropyl)purin-6-yl]-3-methylpyrrolidin-3-ol] | > 10000 nM | 135 nM
18 | CC(=O)N[C@H]1CCN(c2nc(C(C)(C)C)nc3c2ncn3CCC(F)(F)F)C1 [Example 103, N-[(3S)-1-[2-tert-butyl-9-(3,3,3-trifluoropropyl)purin-6-yl]pyrrolidin-3-yl]acetamide] | > 10000 nM | 211 nM

Row | Structure (SMILES) | EC50 (human CB1 receptors) | EC50 (human CB2 receptors)
19 | CC(C)(C)c1nc(N2CCC3(COC3)C2)c2ncn(Cc3ncccc3Cl)c2n1 [Example 104, 7-[2-tert-butyl-9-[(3-chloropyridin-2-yl)methyl]purin-6-yl]-2-oxa-7-azaspiro[3.4]octane] | > 10000 nM | 160 nM
20 | CC(C)(C)c1nc(N2CC(F)(F)C(F)(F)C2)c2ncn(Cc3ccccc3C(F)(F)F)c2n1 [Example 105, 2-tert-butyl-6-(3,3,4,4-tetrafluoropyrrolidin-1-yl)-9-[[2-(trifluoromethyl)phenyl]methyl]purine] | > 10000 nM | 8.9 nM
21 | CC(C)(C)c1nc(N2CC(F)(F)C(F)(F)C2)c2ncn(Cc3ccccc3S(C)(=O)=O)c2n1 [Example 106, 2-tert-butyl-9-[(2-methylsulfonylphenyl)methyl]-6-(3,3,4,4-tetrafluoropyrrolidin-1-yl)purine] | > 10000 nM | 39.9 nM
22 | CC(C)(C)Nc1nc(N2CCC(F)(F)C2)c2ncn(Cc3ccccc3Cl)c2n1 [Example 107, N-tert-butyl-9-[(2-chlorophenyl)methyl]-6-(3,3-difluoropyrrolidin-1-yl)purin-2-amine] | > 10000 nM | 8.1 nM
23 | CC(C)(C)Nc1nc(N2CCC(F)(F)C2)c2ncn(Cc3ccccc3C(F)(F)F)c2n1 [Example 108, N-tert-butyl-6-(3,3-difluoropyrrolidin-1-yl)-9-[[2-(trifluoromethyl)phenyl]methyl]purin-2-amine] | > 10000 nM | 6.7 nM
24 | CC(C)(C)Nc1nc(N2CCC(F)(F)C2)c2ncn(CCC(F)(F)F)c2n1 [Example 110, N-tert-butyl-6-(3,3-difluoropyrrolidin-1-yl)-9-(3,3,3-trifluoropropyl)purin-2-amine] | > 10000 nM | 18.3 nM
25 | Cc1nonc1Cn1cnc2c(N3CCC(F)(F)C3)nc(NC(C)(C)C)nc21 [Example 111, N-tert-butyl-6-(3,3-difluoropyrrolidin-1-yl)-9-[(4-methyl-1,2,5-oxadiazol-3-yl)methyl]purin-2-amine] | > 10000 nM | 14.7 nM
26 | CC(C)(C)Nc1nc(N2CCC(F)(F)C2)c2ncn(Cc3ncccc3Cl)c2n1 [Example 112, N-tert-butyl-9-[(3-chloropyridin-2-yl)methyl]-6-(3,3-difluoropyrrolidin-1-yl)purin-2-amine] | > 10000 nM | 7.9 nM
27 | Cn1nnnc1Cn1cnc2c(N3CCC(F)(F)C3)nc(NC(C)(C)C)nc21 [Example 113, N-tert-butyl-6-(3,3-difluoropyrrolidin-1-yl)-9-[(1-methyltetrazol-5-yl)methyl]purin-2-amine] | > 10000 nM | 249 nM
28 | CC(C)(C)Nc1nc(N2CCC(F)(F)C2)c2ncn(Cc3ccccc3S(C)(=O)=O)c2n1 [Example 114, N-tert-butyl-6-(3,3-difluoropyrrolidin-1-yl)-9-[(2-methylsulfonylphenyl)methyl]purin-2-amine] | > 10000 nM | 45.5 nM
29 | Cc1noc(Cn2cnc3c(N4CCC(F)(F)C4)nc(NC(C)(C)C)nc32)n1 [Example 115, N-tert-butyl-6-(3,3-difluoropyrrolidin-1-yl)-9-[(3-methyl-1,2,4-oxadiazol-5-yl)methyl]purin-2-amine] | > 10000 nM | 195 nM
30 | CC(C)(C)Nc1nc(N2CC[C@H](O)C2)c2ncn(Cc3ccccc3Cl)c2n1 [Example 116, (3S)-1-[2-(tert-butylamino)-9-[(2-chlorophenyl)methyl]purin-6-yl]pyrrolidin-3-ol] | > 10000 nM | 12.1 nM
31 | CC(C)(C)Nc1nc(N2CC[C@H](O)C2)c2ncn(Cc3ccccc3C(F)(F)F)c2n1 [Example 117, (3S)-1-[2-(tert-butylamino)-9-[[2-(trifluoromethyl)phenyl]methyl]purin-6-yl]pyrrolidin-3-ol] | > 10000 nM | 7.2 nM
32 | CC(C)(C)Nc1nc(N2CC[C@H](O)C2)c2ncn(Cc3ncccc3Cl)c2n1 [Example 118, (3S)-1-[2-(tert-butylamino)-9-[(3-chloropyridin-2-yl)methyl]purin-6-yl]pyrrolidin-3-ol] | > 10000 nM | 152 nM
33 | Cc1nonc1Cn1cnc2c(N3CC[C@H](O)C3)nc(NC(C)(C)C)nc21 [Example 119, (3S)-1-[2-(tert-butylamino)-9-[(4-methyl-1,2,5-oxadiazol-3-yl)methyl]purin-6-yl]pyrrolidin-3-ol] | > 10000 nM | 149 nM
34 | CC1(O)CCN(c2nc(NC(C)(C)C)nc3c2ncn3Cc2ccccc2Cl)C1 (stereo not drawn) [Example 120, 1-[2-(tert-butylamino)-9-[(2-chlorophenyl)methyl]purin-6-yl]-3-methylpyrrolidin-3-ol] | > 10000 nM | 108 nM
35 | CC1(O)CCN(c2nc(NC(C)(C)C)nc3c2ncn3Cc2ccccc2C(F)(F)F)C1 (stereo not drawn) [Example 121, 1-[2-(tert-butylamino)-9-[[2-(trifluoromethyl)phenyl]methyl]purin-6-yl]-3-methylpyrrolidin-3-ol] | > 10000 nM | 41.3 nM
36 | Cc1nonc1Cn1cnc2c(N3CCC(C)(O)C3)nc(NC(C)(C)C)nc21 (stereo not drawn) [Example 123, 1-[2-(tert-butylamino)-9-[(4-methyl-1,2,5-oxadiazol-3-yl)methyl]purin-6-yl]-3-methylpyrrolidin-3-ol] | > 10000 nM | 563 nM
